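Assay format: 96-well plates, 48-hour exposure. The concentration for 50% growth inhibition is given as GI50. The concentration for full growth arrest is given as TGI.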
Experiments:
Experiment in all cases: NCI anticancer screen, dose series, 48 h
UACC-62 melanoma = system: UACC-62 melanoma
HOP-92 NSCLC = system: HOP-92 NSCLC
NCI-H460 lung = system: NCI-H460 lung
MDA-MB-231 breast = system: MDA-MB-231 breast
HL-60(TB) leukemia = system: HL-60(TB) leukemia
HCC-2998 colon = system: HCC-2998 colon
SF-539 CNS = system: SF-539 CNS
U251 CNS = system: U251 CNS
MDA-MB-435 = system: MDA-MB-435
IGROV1 ovarian = system: IGROV1 ovarian

| Compound | GI50 (UACC-62 melanoma) | TGI (UACC-62 melanoma) | GI50 (HOP-92 NSCLC) | TGI (HOP-92 NSCLC) | GI50 (NCI-H460 lung) | TGI (NCI-H460 lung) | GI50 (MDA-MB-231 breast) | TGI (MDA-MB-231 breast) | GI50 (HL-60(TB) leukemia) | TGI (HL-60(TB) leukemia) | GI50 (HCC-2998 colon) | TGI (HCC-2998 colon) | GI50 (SF-539 CNS) | TGI (SF-539 CNS) | GI50 (U251 CNS) | TGI (U251 CNS) | GI50 (MDA-MB-435) | TGI (MDA-MB-435) | GI50 (IGROV1 ovarian) | TGI (IGROV1 ovarian) |
| --- | --- | --- | --- | --- | --- | --- | --- | --- | --- | --- | --- | --- | --- | --- | --- | --- | --- | --- | --- | --- |
| O=C1C2=C(C(=O)c3cnccc31)C1C=CC2CC1 (stereo not given) | 1.92 µM | 3.4 µM | 2.62 µM | 8.8 µM | 8.48 µM | 21.7 µM | 2.45 µM | 7.61 µM | 1.25 µM | 4.63 µM | 8.74 µM | 21.2 µM | 2.27 µM | 4.5 µM | 1.76 µM | 3.19 µM | 1.8 µM | 3.55 µM | 2.2 µM | 4.31 µM |
| Cc1ncc(C(=O)Nc2ccc(CN3CCN(C)CC3)c(C(F)(F)F)c2)cc1C#Cc1ccc(N)nc1 | 0.153 µM | 0.854 µM | 0.116 µM | 0.935 µM | 0.19 µM | 1.84 µM | 0.158 µM | 0.711 µM | 0.29 µM | 1.91 µM | 0.998 µM | 4.66 µM | 0.367 µM | 1.1 µM | 0.483 µM | 4.95 µM | 0.155 µM | 0.789 µM | 0.118 µM | 0.751 µM |
| NC(=O)[C@@H](CC1CC1)[C@@H](CCC(F)(F)F)C(=O)N[C@H]1N=C(c2ccccc2)c2cccc(F)c2NC1=O | > 100 µM | > 100 µM | 19.3 µM | > 100 µM | > 100 µM | > 100 µM | 18.8 µM | 42.7 µM | 11.5 µM | 39.1 µM | > 100 µM | > 100 µM | 17.4 µM | 38.9 µM | > 100 µM | > 100 µM | 66.7 µM | > 100 µM | 31.7 µM | > 100 µM |
| CCOc1ccc(/C(C=O)=C(\Cl)c2ccc(OC)cc2)cc1 |  | > 100 µM |  | > 100 µM |  | > 100 µM |  | > 100 µM |  | > 100 µM |  | > 100 µM |  | > 100 µM |  | > 100 µM |  | > 100 µM |  | > 100 µM |
| C=C/C(C)=C/C[C@]1(C)[C@H](C)[C@@H](OC(=O)CCC)[C@H](O)[C@@]23C(=C[C@H](OC)C[C@@H]12)[C@@H](OC(=O)CCC)O[C@H]3OC(C)=O | 0.529 µM | 1.88 µM | 0.303 µM | 1.13 µM | 1.74 µM | 3.52 µM | 0.857 µM | 2.45 µM | 0.228 µM | 0.693 µM | 0.238 µM | 0.71 µM | 0.566 µM | 1.6 µM | 1.32 µM | 2.98 µM | 0.298 µM | 0.95 µM | 1.53 µM | 3.39 µM |
| C1=C/COCc2cc(ccc2OCCN2CCCC2)Nc2nccc(n2)-c2ccc(o2)COC/1 | 1.42 µM | 3.08 µM | 2.21 µM | 9.47 µM | 1.16 µM | 4.5 µM | 1.97 µM | 7.9 µM | 0.729 µM | 6.27 µM | 2.18 µM | 7.93 µM | 1.72 µM | 3.33 µM | 3.07 µM | 14.7 µM | 1.2 µM | 3.73 µM | 0.626 µM | 6.57 µM |
| CN(C)c1ccc(/C=C2\N=C(c3ccccc3)N(c3cc(C(F)(F)F)ccc3Cl)C2=O)cc1 | > 100 µM | > 100 µM | > 87.1 µM | > 100 µM | > 100 µM | > 100 µM | > 100 µM | > 100 µM | > 100 µM | > 100 µM | > 100 µM | > 100 µM | > 100 µM | > 100 µM | > 94.7 µM | > 100 µM | > 100 µM | > 100 µM | > 100 µM | > 100 µM |
| CCN(Cc1cc(F)ccc1F)c1ccc(CO)c(Cl)c1 | 0.0877 µM | 0.602 µM | 0.292 µM | 6.21 µM | 0.177 µM | 10.8 µM | 13.6 µM | 29.1 µM | 5.62 µM | 34.7 µM | 6.37 µM | 21.7 µM | 15.2 µM | 30.4 µM | 0.788 µM | 17.1 µM | 12.8 µM | 30 µM | 0.0527 µM | 0.279 µM |
| O=c1cc(-c2ccc(O)cc2)oc2cc(O[C@@H]3O[C@H](CO)[C@@H](O)[C@H](O)[C@H]3O)cc(O)c12 |  | > 100 µM |  | > 100 µM |  | > 100 µM |  | > 100 µM |  | > 100 µM |  | > 100 µM |  | > 100 µM |  | > 100 µM |  | > 100 µM |  | > 100 µM |
| COc1ccc(Nc2nc3ccccc3c3occc23)cc1 | 5.48 µM | 11.4 µM | 7.62 µM | 21.8 µM | > 50 µM | > 50 µM | 1.34 µM | 10.3 µM | 10.3 µM | > 50 µM | 5 µM | 11.1 µM | 8.89 µM | 18.9 µM | 5.13 µM | 11.7 µM | 1.63 µM | 5.59 µM | 37.4 µM | > 50 µM |
| O=C(/C=C/c1ccc(O)c(O)c1)NCc1c[nH]c2ccccc12 | 80.6 µM | > 100 µM | > 100 µM | > 100 µM | 50.1 µM | > 100 µM | 75.9 µM | > 100 µM | 70 µM | > 100 µM | 35.7 µM | 76.1 µM | 38.9 µM | > 100 µM | 74 µM | > 100 µM | 41.9 µM | > 100 µM | 57.3 µM | > 100 µM |

From PubChem BioAssay (NCI)
